“Also recorded” adds a separate entry of the source. Like-named read-outs stand apart in the source and are kept apart here. One block for each compound: values may come before it.
What was measured:
phthalyl amidase [1] = target: T1, phthalyl amidase (Xanthobacter agilis, UniProt P0C2Y0); assay: Influence of effectors and organic solvents on phthalyl amidase activity; type: biochemical; conditions: for % of Control Activity: 1 mM agent
Method: A typical reaction mixture consisted of 1 ml total volume and contained 0.1 mM III, 0.1 μM phthalyl amidase in 50 mM potassium phosphate buffer (pH 5.5-9.0) at 32° C. for 20 minutes. The reactions were stopped by the addition of 1 ml methanol. After removal of precipitate by centrifugation, an aliquot of the supernatant fraction (typically 30 μl) was monitored for the beta-lactam nucleus and phthalic acid by HPLC using a Zorbax C8 column (0.46×15 cm; MacMod Analytical Inc., Chadds Ford, Pa.). The two reaction products were eluted by a mobile phase constructed as continuous mixed gradients from (a) 1% ACN (acetonitrile)/0.2% TFA (trifluoroacetic acid) and (b) 80% ACN/0.2% TFA as follows: 1) 0% (b), 3min; 2) 0-50% (b), 0.5 min; 3) 50-100% (b), 3 min; 4) 100% (b), 2.5 min; 5) 100-1% (b), 0.1 min; and 6) 0% (b), 5 min.
The effect of various agents on the enzymatic activity of phthalyl amidase was determined using standard conditions (see Example 5). All agents were tested at 1 mM final concentration unless otherwise indicated.

phthalyl amidase [2] = target: T1, phthalyl amidase; assay: Substrate specificity of phthalyl amidase (Tables 9-11); type: biochemical; conditions: for Relative Activity: 30° C., pH 8.0
Method: the activity of phthalyl amidase against 25 compounds was determined. The compounds were divided into beta-lactams (Table 9), phthalyl amides (Table 10), and aromatic ring substituted amides (Table 11). Each reaction mixture (1 ml total volume) contained 2.5 μmol of compound and 0.3 units of enzyme (based on the chromogenic substrate) of the preparative scale purified enzyme, in 50 mM phosphate buffer, pH 8.0. The reactions were conducted at 30° C. Samples of the reaction mixture were taken at various times, and methanol (equal value) was added to stop the reaction. The samples were examined by HPLC to determine the extent of substrate hydrolysis. The amount of compound hydrolyzed was calculated from a standard curve of the test compound. All substrates were stable in buffer at 30° C. and pH 8.0 in the absence of enzyme for 24 hours.

phthalyl amidase [3] = target: T1, phthalyl amidase; assay: Kinetic parameters for phthalyl amidase; type: biochemical; conditions: Table 12; 32° C., pH 8.2
Method: The kinetic parameters of the enzyme were determined for several representative substrates. Compounds II, XVII, and XVIII were tested using 0.9 μg/ml of enzyme. Compounds III and XI were tested using 5.14 μg/ml of enzyme. Substrate concentrations were between 0 and 25 mM and reaction time was between 2 and 20 minutes, depending on the substrate used. All reactions were run at 32° C. and at pH 8.2. Km is the Michaelis constant for enzyme kinetics, Vmax is the maximal rate of reaction calculated by the Michaelis-Menten equation, and Kcat is the catalytic constant for an enzyme reaction.

Xanthobacter agilis = assay: Induction of phthalyl amidase in cultures of Xanthobacter agilis (Table 1); type: cell-based; conditions: for effect on wet weight cell mass: 48 hours growth
Method: Three compounds at different concentrations were added to aerated cultures of the organism growing at 30° C. in Bac MI medium. The compounds tested were phthalate (PAA), phthalyl glycine (PAG), and PMBL. Cells of Xanthobacter agilis were grown with aeration for 24 hours. This vegetative culture was used to inoculate Bac MI medium (50 ml) containing different concentrations of the compounds to be tested. After 48 hours growth under standard conditions, cells were harvested by centrifugation and wet weight of the cells was determined. Crude cell extracts were prepared by lysozyme treatment of the cells as in Example 1. Suspensions were briefly sonicated to break up the viscous suspension. A cell-free supernatant was obtained by centrifugation of the suspension at 14,000 rpm for 15 minutes.
Enzyme activity in cell-free lysates was determined by monitoring conversion of the chromogenic substrate 4-(2'-carboxy-N-benzoyl)amino-2-carboxy-nitrobenzene (II) to 2-nitro-5-amino benzoic acid and phthalic acid, a reaction catalyzed by phthalyl amidase as shown below: [drawing 4]
The assay reaction mixture (1 ml) consisted of 0.3 μmol of the chromogenic substrate (II) and 0.001-0.5 μg of enzyme preparation in 50 mM potassium phosphate buffer, pH 8.0 (buffer A). The enzymatic reaction was conducted at 30° C. for 10 minutes and the appearance of product was monitored at 380 nm (or 430 nm). The amount of substrate hydrolyzed was calculated from a standard curve of the amine product.

[4] = Table 11, aromatic ring substituted amides

T1 sequence (P0C2Y0 2-453): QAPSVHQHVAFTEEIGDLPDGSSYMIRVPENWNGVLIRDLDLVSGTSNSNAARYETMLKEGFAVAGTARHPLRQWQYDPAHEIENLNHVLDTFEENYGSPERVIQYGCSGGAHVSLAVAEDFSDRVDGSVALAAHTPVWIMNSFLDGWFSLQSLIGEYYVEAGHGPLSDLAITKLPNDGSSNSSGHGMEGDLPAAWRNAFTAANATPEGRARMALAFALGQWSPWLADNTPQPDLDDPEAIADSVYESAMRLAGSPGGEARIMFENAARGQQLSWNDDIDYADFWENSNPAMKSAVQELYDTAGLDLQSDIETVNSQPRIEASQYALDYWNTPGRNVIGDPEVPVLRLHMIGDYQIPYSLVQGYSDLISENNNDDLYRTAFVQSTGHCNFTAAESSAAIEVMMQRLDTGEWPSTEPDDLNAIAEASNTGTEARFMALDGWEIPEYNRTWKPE

Compound: [Cl][Mn][Cl] [MnCl2]
% of Control Activity (phthalyl amidase [1]): 84%

Compound: O=C(O)CN1C(=O)C(NC(=O)c2ccccc2C(=O)O)C1CCc1ccco1 (stereo not drawn) [PMBL, phthalyl monocyclic beta-lactam]
effect on wet weight cell mass (Xanthobacter agilis): had no effect
Cell weight (Xanthobacter agilis; addition 1 mg/ml): 0.35 g/50 ml
Total units/mg protein (Xanthobacter agilis; addition 1 mg/ml): 0.28 µmol/min/mg
Units/g/cells (Xanthobacter agilis; addition 1 mg/ml): 0.79 Units/g/cells
Cell weight (Xanthobacter agilis; addition 5 mg/ml): 0.24 g/50 ml
Total units/mg protein (Xanthobacter agilis; addition 5 mg/ml): 2.0 µmol/min/mg
Units/g/cells (Xanthobacter agilis; addition 5 mg/ml): 8.1 Units/g/cells

Compound: O=C(O)CNC(=O)c1ccccc1C(=O)O [PAG, phthalyl glycine]
effect on wet weight cell mass (Xanthobacter agilis): increased the wet weight cell mass
Cell weight (Xanthobacter agilis; addition 1 mg/ml): 0.33 g/50 ml
Total units/mg protein (Xanthobacter agilis; addition 1 mg/ml): 0.35 µmol/min/mg
Units/g/cells (Xanthobacter agilis; addition 1 mg/ml): 1.04 Units/g/cells
Cell weight (Xanthobacter agilis; addition 5 mg/ml): 0.5 g/50 ml
Total units/mg protein (Xanthobacter agilis; addition 5 mg/ml): 4.4 µmol/min/mg
Units/g/cells (Xanthobacter agilis; addition 5 mg/ml): 9.4 Units/g/cells

Compound: [Cl-].[Cl-].[Co+2] [CoCl2]
% of Control Activity (phthalyl amidase [1]): 101%

Compound: [Cl-].[Cl-].[Zn+2] [ZnCl2]
% of Control Activity (phthalyl amidase [1]): 100%

Compound: [Cl][Cu][Cl] [CuCl2]
% of Control Activity (phthalyl amidase [1]): 36%
effect on enzyme activity (phthalyl amidase [1]; 1 mM, iodoacetic acid 10 mM, listed as Cu^++): exert inhibitory activity; also recorded: significantly inhibited the enzyme
effect on enzyme activity (phthalyl amidase [1]; 1 mM, iodoacetic acid 10 mM, listed as copper ions): significantly reduced phthalyl amidase activity

Compound: [Cl][Fe][Cl] [FeCl2]
% of Control Activity (phthalyl amidase [1]): 102%

Compound: O=C(O)CN1C(=O)C(NC(=O)c2ccccc2C(=O)O)C1CCc1ccco1 (stereo not drawn) [drawing 6]
Relative Activity (phthalyl amidase [2]; Table 9, beta-lactams): 47.9

Compound: O=C(O)CI [Iodoacetate]
effect on enzyme activity (phthalyl amidase [1]): exert inhibitory activity; also recorded: significantly reduced phthalyl amidase activity; also recorded: significantly inhibited the enzyme

Compound: [Cl-].[Cl-].[Mg+2] [MgCl2]
% of Control Activity (phthalyl amidase [1]): 102%

Compound: O=C(O)c1cc[c]([Hg][OH])cc1 [p-HMB, parahydroxy mercuric benzoate]
% of Control Activity (phthalyl amidase [1]): 65%
effect on enzyme activity (phthalyl amidase [1]; 1 mM, iodoacetic acid 10 mM): exert inhibitory activity; also recorded: significantly reduced phthalyl amidase activity; also recorded: significantly inhibited the enzyme

Compound: [Cl][Fe]([Cl])[Cl] [FeCl3]
% of Control Activity (phthalyl amidase [1]): 96%

Compound: [Ca+2].[Cl-].[Cl-] [CaCl2]
% of Control Activity (phthalyl amidase [1]): 89%

Compound: O=C(O)CN(CCN(CC(=O)O)CC(=O)O)CC(=O)O [EDTA]
effect on enzyme activity (phthalyl amidase [1]): little or no effect on enzyme activity

Compound: Nc1ncnc2c1ncn2[C@@H]1O[C@H](COP(=O)(O)OP(=O)(O)OP(=O)(O)O)[C@@H](O)[C@H]1O [ATP, adenosine 5triphosphate]
effect on enzyme activity (phthalyl amidase [1]; 1 mM, iodoacetic acid 10 mM): No organic co-factors, such as ATP, NADPH or others, stimulated enzyme activity

Compound: NC(=O)C1=CN([C@@H]2O[C@H](COP(=O)(O)OP(=O)(O)OC[C@H]3O[C@@H](n4cnc5c(N)ncnc54)[C@H](OP(=O)(O)O)[C@@H]3O)[C@@H](O)[C@H]2O)C=CC1 [NADPH, reduced form of NADP]
effect on enzyme activity (phthalyl amidase [1]; 1 mM, iodoacetic acid 10 mM): No organic co-factors, such as ATP, NADPH or others, stimulated enzyme activity

Compound: [Cl][Ni][Cl] [NiCl2]
% of Control Activity (phthalyl amidase [1]): 94%

Compound: O=C(O)c1ccccc1C(=O)O [PAA, phthalate]
Cell weight (Xanthobacter agilis; addition 1 mg/ml): 0.35 g/50 ml
Total units/mg protein (Xanthobacter agilis; addition 1 mg/ml): 1.4 µmol/min/mg
Units/g/cells (Xanthobacter agilis; addition 1 mg/ml): 3.9 Units/g/cells
Cell weight (Xanthobacter agilis; addition 2 mg/ml): 0.47 g/50 ml
Total units/mg protein (Xanthobacter agilis; addition 2 mg/ml): 4.3 µmol/min/mg
Units/g/cells (Xanthobacter agilis; addition 2 mg/ml): 9.3 Units/g/cells
Cell weight (Xanthobacter agilis; addition 5 mg/ml): 0.7 g/50 ml
Total units/mg protein (Xanthobacter agilis; addition 5 mg/ml): 3.7 µmol/min/mg
Units/g/cells (Xanthobacter agilis; addition 5 mg/ml): 5.5 Units/g/cells
Cell weight (Xanthobacter agilis; addition 10 mg/ml): 0.6 g/50 ml
Total units/mg protein (Xanthobacter agilis; addition 10 mg/ml): 12.0 µmol/min/mg
Units/g/cells (Xanthobacter agilis; addition 10 mg/ml): 19.8 Units/g/cells

Compound: O=C(O)CNC(=O)c1ccccc1C(=O)O [XI]
Relative Activity (phthalyl amidase [2]; Table 10, phthalyl amides): 31.8
Km (phthalyl amidase [3]): 140 µM
Vmax (phthalyl amidase [3]): 0.27 μmol/sec/μmol

The next lines start with results.

Relative Activity (phthalyl amidase [2]; [4]): 0
Compound: CCCCCCC(C(=O)O)n1cnc(NC(=O)c2cc(O)cc(O)c2)c1 (stereo not drawn) [XXVII]

Relative Activity (phthalyl amidase [2]; Table 10, phthalyl amides): 295.7
Km (phthalyl amidase [3]): 50 µM
Vmax (phthalyl amidase [3]): 5.95 μmol/sec/μmol
Compound: O=C(O)c1ccccc1C(=O)Nc1ccc([N+](=O)[O-])c(C(=O)O)c1 [II, 4-(2'-carboxy-N-benzoyl)amino-2-carboxy-nitrobenzene]

effect on enzyme activity (phthalyl amidase [1]; 1 mM, iodoacetic acid 10 mM): little or no effect on enzyme activity
Compound: c1cnc2c(c1)ccc1cccnc12 [Phenanthroiine, phenanthroline]

Relative Activity (phthalyl amidase [2]; [4]): 0
Compound: CCCCCCC(C(=O)O)n1cnc(NC(=O)c2cccc(O)c2)c1 (stereo not drawn) [XXVI]

Relative Activity (phthalyl amidase [2]; [4]): 0
Compound: CCCCCCC(C(=O)O)n1cnc(NC(=O)c2ccc(C(=O)O)cc2)c1 (stereo not drawn) [XXIII]
acceptance as substrate of the enzyme (phthalyl amidase [2]): completely eliminates hydrolytic activity

Relative Activity (phthalyl amidase [2]; [4]): 0
Compound: CCCCCCC(C(=O)O)n1cnc(NC(=O)c2ccccc2)c1 (stereo not drawn) [XXVIII]

Relative Activity (phthalyl amidase [2]; [4]): 159.00
Km (phthalyl amidase [3]): 170 µM
Vmax (phthalyl amidase [3]): 1.94 μmol/sec/μmol
Compound: CCCCCCC(C(=O)O)n1cnc(NC(=O)c2c(F)cccc2C(=O)O)c1 (stereo not drawn) [XVIII]

Relative Activity (phthalyl amidase [2]; Table 9, beta-lactams): 0
Compound: O=C(O)CN1C(=O)C(NC(=O)Cc2ccccc2)C1CCc1ccco1 (stereo not drawn) [V]

acceptance as substrate of the enzyme (phthalyl amidase [2]): acceptable
Relative Activity (phthalyl amidase [2]; [4]): 85.9
Compound: CCCCCCC(C(=O)O)n1cnc(NC(=O)c2ncccc2C(=O)O)c1 (stereo not drawn) [Compound XX]

Relative Activity (phthalyl amidase [2]; [4]): 0
Compound: CCCCCCC(C(=O)O)n1cnc(NC(=O)c2cccc(C(=O)O)c2)c1 (stereo not drawn) [XXIV]
acceptance as substrate of the enzyme (phthalyl amidase [2]): completely eliminates hydrolytic activity

effect of solvent on enzyme activity (phthalyl amidase [1]; 10% solvent): least amount of inhibition of the enzyme
Compound: OCC(O)CO [Glycerol]

Relative Activity (phthalyl amidase [2]; Table 10, phthalyl amides): 9.7
Compound: CC(C)NC(=O)c1ccccc1C(=O)O [XII]

Relative Activity (phthalyl amidase [2]; Table 9, beta-lactams): 0
Compound: O=C(O)CN1C(=O)C(NC(=O)COc2ccccc2)C1CCc1ccco1 (stereo not drawn) [IV]

Relative Activity (phthalyl amidase [2]; [4]): 0
Compound: CCCCCCC(C(=O)O)n1cnc(NC(=O)c2ccccc2O)c1 (stereo not drawn) [XXV]

Relative Activity (phthalyl amidase [2]; Table 9, beta-lactams): 0
Compound: O=C(O)CN1C(=O)C(NC(=O)c2ccccc2)C1CCc1ccco1 (stereo not drawn) [VI]

Relative Activity (phthalyl amidase [2]; Table 10, phthalyl amides): 100.0
Compound: O=C(O)C1=C(Cl)CCC2C(NC(=O)c3ccccc3C(=O)O)C(=O)N12 (stereo not drawn) [VII]

acceptance as substrate of the enzyme (phthalyl amidase [2]): acceptable
Relative Activity (phthalyl amidase [2]; [4]): 1.3
Compound: CCCCCCC(C(=O)O)n1cnc(NC(=O)c2cccc(O)c2C(=O)O)c1 (stereo not drawn) [XXI]

Relative Activity (phthalyl amidase [2]; Table 10, phthalyl amides): 544.6
Compound: O=C(O)c1ccccc1C(=O)Nc1ccc([N+](=O)[O-])cc1 [VIII]

Relative Activity (phthalyl amidase [2]; Table 10, phthalyl amides): 118.5
Compound: COC(=O)[C@H](Cc1ccccc1)NC(=O)[C@H](CC(=O)O)NC(=O)c1ccccc1C(=O)O [XIV]

Relative Activity (phthalyl amidase [2]; [4]): 100.0
Km (phthalyl amidase [3]): 90 µM
Vmax (phthalyl amidase [3]): 1.41 μmol/sec/μmol
Compound: CCCCCCC(C(=O)O)n1cnc(NC(=O)c2ccccc2C(=O)O)c1 (stereo not drawn) [XVII]

Relative Activity (phthalyl amidase [2]; Table 10, phthalyl amides): 40.2
Compound: O=C(O)c1ccccc1C(=O)NCc1ccccc1

Relative Activity (phthalyl amidase [2]; Table 10, phthalyl amides): 220.1
Compound: CSCCC(NC(=O)c1ccccc1C(=O)O)C(=O)O (racemic) [XV]

acceptance as substrate of the enzyme (phthalyl amidase [2]): most active compound found
Relative Activity (phthalyl amidase [2]; Table 10, phthalyl amides): 1027.2
Compound: CCCCCCC(C(=O)O)n1cnc(NC(=O)c2ccccc2C(=O)O)c1 (stereo not drawn) [XIII]

acceptance as substrate of the enzyme (phthalyl amidase [2]): Low levels of hydrolysis
Relative Activity (phthalyl amidase [2]; [4]): 0.2
Compound: CCCCCCC(C(=O)O)n1cnc(NC(=O)c2ccccc2-c2nn[nH]n2)c1 (stereo not drawn) [XXII]

Relative Activity (phthalyl amidase [2]; Table 10, phthalyl amides): 90.2
Compound: CC(C)CC(NC(=O)c1ccccc1C(=O)O)C(=O)O (racemic) [XVI]

— patent US5607850A, “Enzyme from microbial source: phthalyl amidase” (Eli Lilly and Company, priority 1995, dated 1997)
